We go through four compounds from patent US9040573B2, “Anti-fungal agent” (Nihon Nohyaku Co., Ltd., priority 2011, dated 2015).

As usually defined, the MIC is the lowest concentration found to suppress growth. One may read the MIC90 as an inhibitory concentration at the 90% level, which refers to growth in some studies and to a panel of isolates in others.

Assay [1] concerns Scytalidium dimidiatum. Briefly: Antifungal Activity Test 1: MIC by broth microdilution method (Alamar Blue). Format: cell-based. To be noted: Neoscytalidium dimidiatum; for MIC: growth inhibited by 80% or more, read-out: MIC; for MIC90: concentration to be MIC in 9 strains out of the 10 strains (90%), read-out: MIC90. From the text: Scytalidium dimidiatum strain of clinical isolate obtained by separation and identification from nail or stratum corneum of patients with superficial mycosis was used. The fungi pre-cultured on an SDA medium was suspended in 0.1% (w/v) Tween 80-containing sterile saline and the suspension was filtered through gauze to collect arthrospore. This was suspended in 0.1% (w/v) Tween 80-containing sterile saline, and added to a 20% Alamar Blue-containing medium to 2×10^4 cells/mL to give a fungal inoculum solution.
(§1) Each drug was used after dissolving in DMSO (dimethyl sulfoxide).
(§2) The minimum inhibitory concentration (MIC) was measured by a broth microdilution method. That is, RPMI1640 medium (Sigma-Aldrich) was buffered with 0.165 M morpholine propanesulfonic acid (MOPS, Wako Pure Chemical Industries, Ltd.) to pH 7.0, and a given amount of a solution of the drug in DMSO was added thereto to prepare 2-fold dilution series within the range of 0.00098-4 μg/mL. This was added to a 96-well microplate by 100 μL, a fungal inoculum solution (100 μL, final concentration of fungi to be added: 1.0×10^4 cells/mL) was added, and the mixture was cultured at 35° C. An Alamar Blue reagent was added in advance to the culture medium (final addition concentration: 10%) and, at the time point when the Alamar Blue reagent in the drug-free growth control group changed from blue to red, the culture was discontinued and the absorbance (differential optical density at 570 nm based on 590 nm served as reference) measured. The minimum concentration of the drug that inhibited the growth of the fungus in the growth control group by 80% or more was taken as MIC. The concentration to be MIC (MIC90) in 9 strains out of the 10 strains (90%) measured was determined.
Reference documents for measurement method: Takako Shinoda et al.: opinion proposed by Committee for Clinical Laboratory Standards of The Japanese Society for Medical Mycology (1995-1997), Method for antifungal susceptibility testing of filamentous fungus, Medical Mycology Journal, 40: 239-257, 1999. Clinical Laboratory Standards Institute/National Committee for Clinical Laboratory Standards. Reference method for broth dilution antifungal susceptibility testing of filamentous fungus. Approved Standard M38-A2. Wayne, Pa.: National Committee for Clinical Laboratory Standards, 2008. Test Results
A general note: Broth dilution looks for growth in wells or tubes with falling amounts of substance.

Assay [2] concerns Scytalidium hyalinum. Briefly: Antifungal Activity Test 2: MIC by broth microdilution method (Alamar Blue). Format: cell-based. Conditions: Neoscytalidium hyalinum. The method, then:
as §2
Scytalidium hyalinum strain of clinical isolate available from CBS (Netherlands) was used. The fungus was pre-cultured in an SDA medium, 0.1% (w/v) Tween 80-containing sterile saline was added to give a suspension, which was filtered through gauze to collect arthrospore. This was suspended in 0.1% (w/v) Tween 80-containing sterile saline, and added to a 20% Alamar Blue-containing medium to 2×10^4 cells/mL to give a fungal inoculum solution.
as §1
The test method was the same as in the aforementioned antifungal activity test 1, and the minimum concentration of the drug that inhibited the growth of the fungus in the growth control group by 80% or more was taken as MIC. The MIC range of the 4 strains measured and the geometric mean (GM) of each drug were determined.

[3] abbreviates: clinical isolate CBS200.88, growth inhibited by 80% or more, read-out: MIC.
Setting [4] is: clinical isolate CBS545.95, growth inhibited by 80% or more, read-out: MIC.
The mark [5] stands for this setting: clinical isolate CBS601.85, growth inhibited by 80% or more, read-out: MIC.
[6] abbreviates: clinical isolate CBS619.84, growth inhibited by 80% or more, read-out: MIC.
Where [7] appears, read: geometric mean of the 4 strains measured, read-out: GM (geometric mean of MIC).
Setting [8] is: range of the 4 strains measured, read-out: MIC range.

Structures are written as SMILES. In brackets after ≈: the same amount, converted by molar mass. Read-outs that look alike come from different tables or passages of the source.

`OC(Cn1cncn1)(Cn1cncn1)c1ccc(F)cc1F` [FCZ, fluconazole]: the MIC in assay [1] (clinical isolate 530129), in assay [1] (clinical isolate 530142), in assay [1] (clinical isolate 530251), in assay [1] (clinical isolate 530621), in assay [1] (clinical isolate 530633) and in assay [1] (clinical isolate 530914) was > 4 µg/mL each time. Further, the MIC in assay [1] (clinical isolate 530946), in assay [1] (clinical isolate 530999), in assay [1] (clinical isolate 531581), in assay [1] (clinical isolate 531869), in assay [2] (setting [3]) and in assay [2] (setting [4]) was > 4 µg/mL throughout. Besides, the MIC in assay [2] (setting [5]) was 2 µg/mL (≈ 6.53 µM); in assay [2] (setting [6]), > 4 µg/mL; in assay [2] (setting [7]) it was > 4 µg/mL. Besides, the MIC90 in assay [1] was > 4 µg/mL.

With `CCC(C)n1ncn(-c2ccc(N3CCN(c4ccc(OCC5COC(Cn6cncn6)(c6ccc(Cl)cc6Cl)O5)cc4)CC3)cc2)c1=O` (stereo not drawn) [ITZ, itraconazole], the MIC in assay [1] (clinical isolate 530129), in assay [1] (clinical isolate 530142), in assay [1] (clinical isolate 530251), in assay [1] (clinical isolate 530621), in assay [1] (clinical isolate 530633) and in assay [1] (clinical isolate 530914) was > 4 µg/mL throughout. Moreover, the MIC in assay [1] (clinical isolate 530946), in assay [1] (clinical isolate 530999), in assay [1] (clinical isolate 531581), in assay [1] (clinical isolate 531869), in assay [2] (setting [3]) and in assay [2] (setting [4]) was > 4 µg/mL in each case. In addition, the MIC is 0.016 µg/mL (≈ 0.0227 µM) in assay [2] (setting [5]), > 4 µg/mL in assay [2] (setting [6]) and > 4 µg/mL in assay [2] (setting [7]). In assay [1], the MIC90 was > 4 µg/mL.

On to `CC(=O)N1CCN(c2ccc(OCC3COC(Cn4ccnc4)(c4ccc(Cl)cc4Cl)O3)cc2)CC1` (stereo not drawn) [KCZ, ketoconazole], for which the MIC in assay [1] (clinical isolate 530129) is 4 µg/mL (≈ 7.53 µM); in assay [1] (clinical isolate 530142) it was > 4 µg/mL; in assay [1] (clinical isolate 530251) it was > 4 µg/mL; in assay [1] (clinical isolate 530621), > 4 µg/mL; in assay [1] (clinical isolate 530633), 4 µg/mL (≈ 7.53 µM); in assay [1] (clinical isolate 530914) it was > 4 µg/mL. In addition, the MIC is > 4 µg/mL in assay [1] (clinical isolate 530946); > 4 µg/mL in assay [1] (clinical isolate 530999); > 4 µg/mL in assay [1] (clinical isolate 531581); 2 µg/mL (≈ 3.76 µM) in assay [1] (clinical isolate 531869); 2 µg/mL (≈ 3.76 µM) in assay [2] (setting [3]); 1 µg/mL (≈ 1.88 µM) in assay [2] (setting [4]). The MIC was 0.031 µg/mL (≈ 0.0583 µM) in assay [2] (setting [5]), 2 µg/mL (≈ 3.76 µM) in assay [2] (setting [6]), 0.59 µg/mL (≈ 1.11 µM) in assay [2] (setting [7]) and 0.031 to 2 µg/mL (≈ 0.0583 to 3.76 µM) in assay [2] (setting [8]). Also, the MIC90 in assay [1] was > 4 µg/mL.

Consider `N#C/C(=C1/SCC(c2ccccc2Cl)S1)n1ccnc1` (stereo not drawn) [LCZ, [4-(2-chlorophenyl)-1,3-dithioran-2-ylidene](1H-imidazol-1-yl)acetonitrile], for which the MIC in assay [1] (clinical isolate 530129) was found to be 0.0039 µg/mL (≈ 0.0122 µM); in assay [1] (clinical isolate 530142) it was 0.002 µg/mL (≈ 0.00625 µM); in assay [1] (clinical isolate 530251), 0.0039 µg/mL (≈ 0.0122 µM); in assay [1] (clinical isolate 530621), 0.0039 µg/mL (≈ 0.0122 µM); in assay [1] (clinical isolate 530633), 0.0039 µg/mL (≈ 0.0122 µM); in assay [1] (clinical isolate 530914), 0.0039 µg/mL (≈ 0.0122 µM). In addition, the MIC in assay [1] (clinical isolate 530946) stood at 0.0039 µg/mL (≈ 0.0122 µM); in assay [1] (clinical isolate 530999), 0.002 µg/mL (≈ 0.00625 µM); in assay [1] (clinical isolate 531581), 0.0039 µg/mL (≈ 0.0122 µM); in assay [1] (clinical isolate 531869) it was 0.002 µg/mL (≈ 0.00625 µM); in assay [2] (setting [3]), 0.002 µg/mL (≈ 0.00625 µM); in assay [2] (setting [4]), 0.00098 µg/mL (≈ 0.00306 µM). The MIC was 0.00024 µg/mL (≈ 0.00075 µM) in assay [2] (setting [5]), 0.002 µg/mL (≈ 0.00625 µM) in assay [2] (setting [6]), 0.00098 µg/mL (≈ 0.00306 µM) in assay [2] (setting [7]) and 0.00024 to 0.002 µg/mL (≈ 0.00075 to 0.00625 µM) in assay [2] (setting [8]). Also, the MIC90 in assay [1] came out at 0.0039 µg/mL (≈ 0.0122 µM).
